In patent publication EP0540782B1, “Use of analogues of polyisoprenyl pyrophosphate for inhibiting protein isoprenylation” (NEDERLANDSE ORGANISATIE VOOR …, priority 1991, dated 1993) one finds IC50 data, which are given here for two molecules.

SMILES strings stand for the structures. Bounds are passed on as bounds.

In one test the target is T1, squalene synthase (Rattus norvegicus, UniProt Q02769).
T1 construct: squalene synthase in rat liver microsomal preparations; from tissue; host or cells: rat liver microsomes
T1 sequence (Q02769 1-416): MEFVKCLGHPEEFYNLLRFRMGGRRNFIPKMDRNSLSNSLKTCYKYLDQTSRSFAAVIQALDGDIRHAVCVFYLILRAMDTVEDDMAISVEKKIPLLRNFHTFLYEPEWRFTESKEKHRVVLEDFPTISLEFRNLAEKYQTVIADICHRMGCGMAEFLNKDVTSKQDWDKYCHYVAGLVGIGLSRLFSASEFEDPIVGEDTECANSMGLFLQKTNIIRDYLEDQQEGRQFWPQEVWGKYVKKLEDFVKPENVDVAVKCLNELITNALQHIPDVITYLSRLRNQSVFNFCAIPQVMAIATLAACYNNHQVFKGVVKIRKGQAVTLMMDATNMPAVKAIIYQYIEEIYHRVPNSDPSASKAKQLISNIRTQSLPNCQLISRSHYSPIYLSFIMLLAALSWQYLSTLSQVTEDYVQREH
As to the kind of experiment: Inhibition of squalene synthase in rat liver microsomal preparations. In kind it is biochemical. A general note: Liver microsomes are vesicles of endoplasmic reticulum, rich in cytochrome P450 enzymes.

The target of test [1] is farnesyl: protein transferase (Oryctolagus cuniculus, UniProt G1SFC8+G1T7D9). As to the kind of experiment: Inhibition of farnesylation of p21ras precursor (H-ras protein) by farnesyl: protein transferase in rabbit reticulocyte lysate, [3H]-FPP incorporation. Conditions: read-out: IC50-values, H-ras protein 30 µg/ml, 1 µM [3H]-farnesyl pyrophosphate, 37°C for 30 min.
Sequence of farnesyl: protein transferase (G1T7D9 entry or part of it, one chain of several): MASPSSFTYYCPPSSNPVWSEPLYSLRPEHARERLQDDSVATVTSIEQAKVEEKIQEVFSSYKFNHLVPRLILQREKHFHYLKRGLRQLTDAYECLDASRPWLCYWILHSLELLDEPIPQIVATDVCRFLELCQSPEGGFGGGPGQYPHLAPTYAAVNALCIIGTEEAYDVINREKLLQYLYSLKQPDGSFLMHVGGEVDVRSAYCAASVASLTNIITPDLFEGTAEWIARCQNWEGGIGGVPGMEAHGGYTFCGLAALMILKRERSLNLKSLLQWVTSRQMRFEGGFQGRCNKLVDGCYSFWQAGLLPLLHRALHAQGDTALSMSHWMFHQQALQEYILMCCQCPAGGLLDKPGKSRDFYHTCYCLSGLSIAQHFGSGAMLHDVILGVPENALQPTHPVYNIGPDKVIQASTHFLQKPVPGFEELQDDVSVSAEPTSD

Take `CC(C)=CCCC(C)=CCCC(C)=CCCP(=O)(O)OP(=O)(O)O` [compound 1, farnesylmethylphosphonophosphate]: the values for the IC50 (on squalene synthase; in test [1]) were 480 µM and 4 µM, respectively.

Consider `CC(C)=CCCC(C)=CCCC(C)=CCP(=O)(O)OP(=O)(O)O` [compound 3, farnesylphosphonophosphate], for which the results for the IC50 (against squalene synthase; in test [1]) were 120 µM and less than 1 µM, respectively.
